Values quoted from earlier work as cited in patent US11458160B2, “Food supplements for use in the prophylaxis and treatment of migraine” (CRISTALFARMA S.R.L., priority 2017, dated 2022).

Legend:
[1] = weeks 9-12; 600 mg magnesium per day orally for 12 weeks; 81 patients; p<0.05
[2] = magnesium sulphate intravenously, same amount

Question: For `O=C([O-])CC(O)(CC(=O)[O-])C(=O)[O-].O=C([O-])CC(O)(CC(=O)[O-])C(=O)[O-].[Mg+2].[Mg+2].[Mg+2]` [magnesium, tri-magnesium di-citrate], which “reduction of attack frequency compared to the baseline” value [1] is on record?
Answer: The value was 41.6%.

Question: For `O=S(=O)([O-])[O-].[Mg+2]` [magnesium sulphate], which “efficacy compared with intravenous ketorolac” value [2] is on record?
Answer: Its value is “as effective as an intravenously administered NSAID such as ketorolac”.
